Patent publication US20250195530A1, “POLQ INHIBITORS” (ASTRAZENECA AB, priority 2022, published 2025)
Like-named read-outs stand apart in the source and are kept apart here.

Test system: DLD-1 BRCA2−/− cells
Assay: Homologous recombination synthetic lethal inhibition of proliferation, DLD-1 BRCA2-/- (Cell Titre Glo 3D)
Format: cell-based
Conditions: for IC50: Homo sapiens
Summary of the method: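 Proliferation of HR-deficient DLD-1 BRCA2−/− versus isogenic wild-type DLD-1 was measured by ATP luminescence (CellTiter-Glo 3D). Compound exposure lasted 12 or 7 days, respectively, with a fresh dose on day 6. IC50 was the concentration halving maximal signal.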

[1] = DLD-1, first proliferation column (c5), DLD-1 BRCA2-/-, read-out: POLQ PD Prolif Lumin (converted)
[2] = DLD-1, proliferation, luminescence, taken as DLD-1 BRCA2-/-, read-out: POLQ PD Prolif Lumin (converted)
[3] = DLD-1, first proliferation column, DLD-1 BRCA2-/-, read-out: POLQ PD Prolif Lumin (converted)
[4] = DLD-1, DLD-1 BRCA2 −/− cells, mean, read-out: POLQ PD Prolif Lumin BRCA2 −/− mean pIC50 (converted)
[5] = DLD-1, first proliferation column (c5), taken as DLD-1 BRCA2-/-, read-out: POLQ PD Prolif Lumin (converted)
[6] = DLD-1, DLD-1 BRCA2-/- proliferation, column head only partly shown, read-out: POLQ PD Prolif Lumin (converted)

## Cc1ccnc(Cn2c(-c3ccc(N4CCC5(CNC5)C4)cc3Cl)nc3c(OC4(C)CC4)ncnc32)c1 [Example T490, 8-(2-chloro-4-(2,6-diazaspiro[3.4]octan-6-yl)phenyl)-6-(1-methylcyclopropoxy)-9-((4-methylpyridin-2-yl)methyl)-9H-purine]
[1]
  IC50: 2000 nM

## Cc1ccnc(Cn2c(-c3ccc(OCC(=O)NC4CC(O)C4)cc3Cl)nc3c(OC4(C)CC4)ncnc32)c1 (stereo not shown) [Example T479, 2-(3-chloro-4-(6-(1-methylcyclopropoxy)-9-((4-methylpyridin-2-yl)methyl)-9H-purin-8-yl)phenoxy)-N-(3-hydroxycyclobutyl)acetamide]
[2]
  IC50: 398 nM

## Cc1ccnc(Cn2c(-c3ccc(C(=O)N4CC(N5CCCC5)C4)cc3Cl)nc3c(OC4(C)CC4)ncnc32)c1 [Example T602, (3-chloro-4-(6-(1-methylcyclopropoxy)-9-((4-methylpyridin-2-yl)methyl)-9H-purin-8-yl)phenyl)(3-(pyrrolidin-1-yl)azetidin-1-yl)methanone]
[3]
  IC50: 1260 nM

## Cc1ccnc(Cn2c(-c3ccc(N4CCOC4=O)cc3Cl)nc3c(OC4(C)CC4)ncnc32)c1 [Example T96, 3-(3-chloro-4-(6-(1-methylcyclopropoxy)-9-((4-methylpyridin-2-yl)methyl)-9H-purin-8-yl)phenyl)oxazolidin-2-one]
[4]
  IC50: 100 nM

## COC1(COc2ccc(-c3nc4c(OC5(C)CC5)ncnc4n3Cc3cc(C)ccn3)c(Cl)c2)COC1 [Example T333, 8-(2-chloro-4-((3-methoxyoxetan-3-yl)methoxy)phenyl)-6-(1-methylcyclopropoxy)-9-((4-methylpyridin-2-yl)methyl)-9H-purine]
[5]
  IC50: 251 nM

## Cc1ccnc(Cn2c(-c3ccc(O[C@H]4CCN(C(=O)[C@@H](C)O)C4)cc3Cl)nc3c(OC4(C)CC4)ncnc32)c1 [Example T584, (R)-1-((S)-3-(3-chloro-4-(6-(1-methylcyclopropoxy)-9-((4-methylpyridin-2-yl)methyl)-9H-purin-8-yl)phenoxy)pyrrolidin-1-yl)-2-hydroxypropan-1-one]
[3]
  IC50: 794 nM

## CC1(Oc2ncnc3c2nc(-c2ccc(OCCC(=O)O)cc2Cl)n3Cc2ccc(Cl)c(Cl)c2)CC1 [Example T84, 3-(3-chloro-4-(9-(3,4-dichlorobenzyl)-6-(1-methylcyclopropoxy)-9H-purin-8-yl)phenoxy)propanoic acid]
[4]
  IC50: 2000 nM

## Cc1ccnc(Cn2c(-c3ccc(OCC(N)=O)cc3Cl)nc3c(OC4(C)CC4)ncnc32)c1 [Example T61, 2-(3-chloro-4-(6-(1-methylcyclopropoxy)-9-((4-methylpyridin-2-yl)methyl)-9H-purin-8-yl)phenoxy)acetamide]
[4]
  IC50: 251 nM

## Cc1ccnc(Cn2c(-c3ccc(OCC(F)(F)CO)cc3Cl)nc3c(OC4(C)CC4)ncnc32)c1 [Example T98, 3-(3-chloro-4-(6-(1-methylcyclopropoxy)-9-((4-methylpyridin-2-yl)methyl)-9H-purin-8-yl)phenoxy)-2,2-difluoropropan-1-ol]
[4]
  IC50: 100 nM

## Cc1ccnc(Cn2c(-c3ccc(OCCN4CCN(C)CC4)cc3Cl)nc3c(OC(C)(C)C)nccc32)c1 [Example T610, 4-(tert-butoxy)-2-(2-chloro-4-(2-(4-methylpiperazin-1-yl)ethoxy)phenyl)-1-((4-methylpyridin-2-yl)methyl)-1H-imidazo[4,5-c]pyridine]
[3]
  IC50: > 7940 nM

## CC(C)(CCOc1ccc(-c2nc3c(OC4(C)CC4)ncnc3n2Cc2cccc(Cl)c2)c(Cl)c1)CC(=O)O [Example T562, 5-(3-chloro-4-(9-(3-chlorobenzyl)-6-(1-methylcyclopropoxy)-9H-purin-8-yl)phenoxy)-3,3-dimethylpentanoic acid]
[1]
  IC50: 126 nM

## Cc1ccnc(Cn2c(-c3ccc(N4CCNC(=O)CC4)cc3Cl)nc3c(OC4(C)CC4)ncnc32)c1 [Example T339, 1-(3-chloro-4-(6-(1-methylcyclopropoxy)-9-((4-methylpyridin-2-yl)methyl)-9H-purin-8-yl)phenyl)-1,4-diazepan-5-one]
[5]
  IC50: 501 nM

## CC(CCCOc1cccc(-c2nc3c(OC4(C)CC4)ncnc3n2Cc2cccc(Cl)c2)c1Cl)C(=O)O (single isomer, unassigned) [Example T443, 5-(2-chloro-3-(9-(3-chlorobenzyl)-6-(1-methylcyclopropoxy)-9H-purin-8-yl)phenoxy)-2-methylpentanoic acid]
[2]
  IC50: 79.4 nM

## Cc1ccnc(Cn2c(-c3ccc(CC(=O)NCC(C)(C)O)cc3Cl)nc3c(OC4(C)CC4)ncnc32)c1 [Example T515, 2-(3-chloro-4-(6-(1-methylcyclopropoxy)-9-((4-methylpyridin-2-yl)methyl)-9H-purin-8-yl)phenyl)-N-(2-hydroxy-2-methylpropyl)acetamide]
[1]
  IC50: 631 nM

## Cc1ccnc(Cn2c(-c3ccc(OCC(=O)NCC(C)(C)O)cc3Cl)nc3c(OC4(C)CC4)ncnc32)c1 [Example T517, 2-(3-chloro-4-(6-(1-methylcyclopropoxy)-9-((4-methylpyridin-2-yl)methyl)-9H-purin-8-yl)phenoxy)-N-(2-hydroxy-2-methylpropyl)acetamide]
[1]
  IC50: 398 nM

## COC(=O)NCCc1ccc(-c2nc3c(OC4(C)CC4)ncnc3n2Cc2cc(C)ccn2)c(Cl)c1 [Example T222, methyl (3-chloro-4-(6-(1-methylcyclopropoxy)-9-((4-methylpyridin-2-yl)methyl)-9H-purin-8-yl)phenethyl)carbamate]
[6]
  IC50: 200 nM

## Cc1cc(Cn2c(-c3ccc(CC(N)=O)cc3Cl)nc3c(OC4(C)CC4)ncnc32)ccn1 [Example T58, 2-(3-chloro-4-(6-(1-methylcyclopropoxy)-9-((2-methylpyridin-4-yl)methyl)-9H-purin-8-yl)phenyl)acetamide]
[4]
  IC50: > 10000 nM

## Cc1ccnc(Cn2c(-c3ccc(N4CCN5CCC4C5)cc3Cl)nc3c(OC4(C)CC4)ncnc32)c1 (racemic) [Example T493, 8-(4-(1,4-diazabicyclo[3.2.1]octan-4-yl)-2-chlorophenyl)-6-(1-methylcyclopropoxy)-9-((4-methylpyridin-2-yl)methyl)-9H-purine]
[1]
  IC50: 251 nM

## Cc1ccnc(Cn2c(-c3ccc(OCC(=O)N(C)C)cc3Cl)nc3c(OC4(C)CC4)ncnc32)c1 [Example T216, 2-(3-chloro-4-(6-(1-methylcyclopropoxy)-9-((4-methylpyridin-2-yl)methyl)-9H-purin-8-yl)phenoxy)-N,N-dimethylacetamide]
[6]
  IC50: 316 nM

## CC1(Oc2ncnc3c2nc(-c2cccc(OCCCC(C)(C)C(=O)O)c2Cl)n3Cc2cccc(Cl)c2)CC1 [Example T565, 5-(2-chloro-3-(9-(3-chlorobenzyl)-6-(1-methylcyclopropoxy)-9H-purin-8-yl)phenoxy)-2,2-dimethylpentanoic acid]
[1]
  IC50: 100 nM

## Cc1ccnc(Cn2c(-c3ccc(CC(=O)N4CC[C@@H](O)C4)cc3Cl)nc3c(OC4(C)CC4)ncnc32)c1 [Example T458, (R)-2-(3-chloro-4-(6-(1-methylcyclopropoxy)-9-((4-methylpyridin-2-yl)methyl)-9H-purin-8-yl)phenyl)-1-(3-hydroxypyrrolidin-1-yl)ethan-1-one]
[2]
  IC50: 631 nM

## Cc1ncccc1Cn1c(-c2ccc(CC(N)=O)cc2Cl)nc2c(OC3(C)CC3)ncnc21 [Example T60, 2-(3-chloro-4-(6-(1-methylcyclopropoxy)-9-((2-methylpyridin-3-yl)methyl)-9H-purin-8-yl)phenyl)acetamide]
[4]
  IC50: 10000 nM

## Cn1nc(COc2ccc(-c3nc4c(OC5(C)CC5)ncnc4n3Cc3cccc(Cl)c3)c(Cl)c2)cc1C(=O)O [Example T394, 3-((3-chloro-4-(9-(3-chlorobenzyl)-6-(1-methylcyclopropoxy)-9H-purin-8-yl)phenoxy)methyl)-1-methyl-1H-pyrazole-5-carboxylic acid]
[2]
  IC50: 3160 nM

## Cc1ccnc(Cn2c(-c3ccc(OCC(=O)N(C)[C@H]4C[C@@H](O)C4)cc3Cl)nc3c(OC4(C)CC4)ncnc32)c1 [Example T582, 2-(3-chloro-4-(6-(1-methylcyclopropoxy)-9-((4-methylpyridin-2-yl)methyl)-9H-purin-8-yl)phenoxy)-N-((1s,3s)-3-hydroxycyclobutyl)-N-methylacetamide]
DLD-1 BRCA2-/-
  POLQ PD Prolif Lumin: 6.2

## Cc1ccnc(Cn2c(-c3ccc(OCC(C)(C)CO)cc3Cl)nc3c(OC4(C)CC4)ncnc32)c1 [Example T383, 3-(3-chloro-4-(6-(1-methylcyclopropoxy)-9-((4-methylpyridin-2-yl)methyl)-9H-purin-8-yl)phenoxy)-2,2-dimethylpropan-1-ol]
[5]
  IC50: 126 nM

## Cc1ccnc(Cn2c(-c3ccc(OCC(=O)N4C[C@H]5C[C@@H](C4)O5)cc3Cl)nc3c(OC4(C)CC4)ncnc32)c1 [Example T550, rel-1-((1R,5S)-6-oxa-3-azabicyclo[3.1.1]heptan-3-yl)-2-(3-chloro-4-(6-(1-methylcyclopropoxy)-9-((4-methylpyridin-2-yl)methyl)-9H-purin-8-yl)phenoxy)ethan-1-one]
[1]
  IC50: 316 nM

## CC(CCOc1ccc(-c2nc3c(OC4(C)CC4)ncnc3n2Cc2ccc(F)c(Cl)c2)c(Cl)c1)C(=O)O (racemic) [Example T269, 4-(3-chloro-4-(9-(3-chloro-4-fluorobenzyl)-6-(1-methylcyclopropoxy)-9H-purin-8-yl)phenoxy)-2-methylbutanoic acid]
[6]
  IC50: 1260 nM

## Cc1ccnc(Cn2c(-c3ccc(N4CCCNCC4)cc3Cl)nc3c(OC4(C)CC4)ncnc32)c1 [Example T384, 8-(2-chloro-4-(1,4-diazepan-1-yl)phenyl)-6-(1-methylcyclopropoxy)-9-((4-methylpyridin-2-yl)methyl)-9H-purine]
[5]
  IC50: 398 nM
